Measurements reported in patent publication US20060079453A1, “Hla binding peptides and their uses” (priority 2002, published 2006).
No end group written: not given here.

Tests used:
Test in all cases: biochemical
Format in all cases: binding
[1] = biological target: HLA-A*0301 (Homo sapiens, UniProt P04439)
[2] = biological target: HLA-A*1101 (Homo sapiens, UniProt P04439, A114D/D185E/E176A/F33Y/L180Q/S129P/T187R)
[3] = biological target: HLA-A*3301 (Homo sapiens, UniProt P04439, A270S/D185E/E176V/E277Q/E87N/F33T/G231S/H175R/I121M/I218V/I322F/K168Q/K210R/L300P/L318F/M331R/P217A/Q86R/Q94H/R138Q/T323A/T345S/T97I/V358M/Y195H)
[4] = biological target: HLA-A*6801 (Homo sapiens, UniProt P04439, A269V/D185E/E176V/E277Q/E87N/F33Y/G231S/I121M/I166T/I218V/L180W/L300P/L318F/N151K/P208A/P217A/Q86R/R169H/T345S)
[5] = biological target: HLA-A*3101 (Homo sapiens, UniProt P04439, A270S/D185E/E176V/E277Q/F33T/G231S/G80R/H175R/I121M/I218V/I322F/K168Q/L300P/L318F/M331R/P217A/Q94H/R138Q/T323A/T345S/T97I/V358M)

Sequence	IC50 [1]	IC50 [2]	IC50 [3]	IC50 [4]	IC50 [5]
LQMMNVNLQK	25 nM	7.2 nM	1110 nM	320 nM	–
LTYRDDFPY	8260 nM	82 nM	20200 nM	–	> 71100 nM
LVGPGPGK	1000 nM	–	> 126000 nM	598 nM	23900 nM
LVYRDDFPK	–	13 nM	1970 nM	130 nM	3010 nM
LVYSKVRKYR	320 nM	619 nM	49 nM	31 nM	–
MFQDPQERPRK	15500 nM	8570 nM	419 nM	–	604 nM
MQSSFFMNR	–	1.1 nM	75 nM	3.8 nM	29 nM
NLVYGETLEK	846 nM	–	121 nM	87 nM	761 nM
PAAYAAQGYK	950 nM	–	> 111000 nM	666 nM	20300 nM
PVVCSMEYK	–	80 nM	22600 nM	–	331000 nM
QLARQAKQH	8420 nM	–	1660 nM	243 nM	945 nM
QMAGPGPGFK	9.4 nM	6.2 nM	4780 nM	30 nM	–
QMGPGPGNFK	49 nM	–	101000 nM	63 nM	2680 nM
RFCLLFYSK	–	484 nM	450 nM	232 nM	83 nM
RFEDPTRRPYK	–	432 nM	1760 nM	7340 nM	53 nM
RFEVYQFAFK	–	611 nM	2870 nM	2440 nM	–
RFHNIAGHYK	25 nM	–	80 nM	23 nM	2.6 nM
RFLSKISEYK	31 nM	–	10200 nM	–	42 nM
RFLSKISEYR	1640 nM	–	436 nM	–	33 nM
RFYITTRYK	1.9 nM	–	98 nM	17500 nM	15 nM
RFYSKVSEFK	27 nM	–	4450 nM	547 nM	30 nM
RLLSKISEYK	15 nM	65 nM	40000 nM	–	158 nM

Sequence	IC50 [1]	IC50 [2]	IC50 [3]	IC50 [4]	IC50 [5]
RMYVGGVEH	3.8 nM	274 nM	> 123000 nM	> 28800 nM	–
RTLSKISEYR	77 nM	100 nM	189 nM	–	52 nM
RVLSKISEYR	34 nM	84 nM	197 nM	–	24 nM
SLFGPGPGK	3.4 nM	2.3 nM	82300 nM	36 nM	–
SQVSNSDSYK	1660 nM	83 nM	> 17400 nM	–	24600 nM
SSPLFNNFYK	100 nM	0.7 nM	1730 nM	6.3 nM	–
STLPEGPGPGR	–	–	822 nM	30 nM	28 nM
SVYGTTLER	28 nM	6.4 nM	454 nM	21 nM	–
TFVHEIELK	4430 nM	–	4130 nM	–	8410 nM
TTLEKLTNR	1990 nM	817 nM	37 nM	–	42 nM
TTRYKYLNK	117 nM	848 nM	652 nM	2560 nM	–
TVGPGPGPEK	–	17 nM	98200 nM	23 nM	10100 nM
TVQGPGPGEK	218 nM	3.4 nM	103000 nM	–	9870 nM
VQLDIQSTR	15100 nM	2920 nM	4590 nM	–	–
VSIRVGGQTR	–	241 nM	8590 nM	–	466 nM
VTGPGPGPVWK	2900 nM	24 nM	> 103000 nM	–	13000 nM
VTIRIGGQLR	3190 nM	–	1350 nM	16 nM	61 nM
VTVGPGPGVWK	–	2.7 nM	75400 nM	21 nM	2730 nM
VTVKIGGQLR	19200 nM	–	3830 nM	52 nM	–
VTVKVGGQLK	206 nM	54 nM	46200 nM	104 nM	–
VVHAQLPAR	–	127 nM	12 nM	201 nM	3.4 nM
